In patent US8648074B2, “Substituted octahydropyrrolo[1,2-a]pyrazine sulfonamides as calcium channel blockers” (AbbVie Inc., priority 2011, dated 2014):

What follows are compounds tested on Chronic constriction injury (CCl), a model of neuropathic pain (assay: In vivo assessment of analgesic effect against neuropathic pain (Bennett model, chronic constriction injury; tactile allodynia by von Frey filaments)). Details: Rattus norvegicus, po, 1 h; male Sprague Dawley rats, CCI; 10 mg/kg orally; mechanical allodynia 60 minutes following administration; percentage of maximum possible effect from log g PWT; read-out: % MPE.
Experimental: Animals were prepared for testing, by use of a surgical procedure that induces neuropathic pain in one paw. IACUC guidelines for rodent survival surgery were followed. All surgical procedures were conducted on a clean, uncluttered surgical station. The area was wiped with a 70% ethanol solution before and after use. All instruments were sterilized by either autoclave or chemical sterilant (such as 2% glutaraldehyde>10 hours). Surgeons wore sterile gloves (for the initial procedure), clean lab coat or scrubs, hairnet or cap, and a half-mask respirator (when not working under a hood). Surgeons thoroughly washed their hands prior to donning sterile gloves. Gloves were disinfected in-between animals by cleansing with povidone iodine, chlorhexidine or 70% alcohol for at least 30 seconds. If multiple surgeries were performed, the instruments were cleaned and sterilized between procedures with hot glass beads (>10 seconds). To prevent thermal or chemical burns, the instruments were cooled by rinsing in sterile saline before use. Male, Sprague Dawley® rats, 175-200 g were used for surgeries. To minimize post-operative dehydration/maintain blood volume during the surgery, warmed sterile saline or Lactate Ringers solution at 10-15 mL/kg was administered subcutaneously immediately before or after surgery. This facilitated better renal function and presumably anesthesia product excretion post surgery. For all surgical procedures, anesthesia was induced with 4-5% isoflurane. Anesthesia was maintained during surgery with 1-3% isoflurane. Following induction, the surgical site was carefully shaved and the exposed area was aseptically prepared with povidone-iodine scrub solution and 70% ethanol 2-3 times. Chronic constriction injury (CCl), a model of neuropathic pain, was produced by following the method of Bennett and Xie (Bennett, G, et al. Pain, 1988, 33, 87-107). After site sterilization and anesthetic procedures outline above were completed, a 1.5 cm incision was made at the mid-thigh level to expose the biceps femoris and gluteous superficialis (right side), which were then separated by blunt dissection. The common sciatic nerve was exposed, isolated, and loosely ligated by four 5-0 chromic gut ligatures with <1 mm spacing between each. The surgical site was closed in layers—muscle was closed with 6.0 absorbable sutures, and the skin closed with wound clips. Animals were allowed to recover on a warming plate and were returned to their home cages when fully ambulatory. Animals were not be used for testing until at least 10 days following surgery. To measure mechanical sensitivity, tactile allodynia was measured using calibrated von Frey filaments (Stoelting, Wood Dale, Ill.) as described by Chaplan et al. (Chaplan S., et al. J of Neuroscience Methods 1994, 53, 55-63). Filament strengths used were: 0.4, 0.6, 1.0, 2, 4, 6, 8, and 15 g. Rats were placed into inverted individual plastic containers (20×12.5×20 cm) on top of a suspended wire mesh grid, and acclimated to the test chambers for at least 20 minutes. Filaments were applied perpendicular to the mid-plantar paw surface with enough force to cause slight buckling and held in place for 6-8 seconds. Positive responses included an abrupt withdrawal of the paw from the stimulus or flinching behavior immediately following removal of the stimulus. The maximum force applied was 15 g. The 50% paw withdrawal threshold (PWT) was calculated in grams (g) using the up-down method of Dixon (Dixon W. Ann Rev Pharmacol Toxicol 1980, 20, 441-462). […] All compounds were orally administered in at a dose of 10 mg/kg in 10% dimethyl sulfoxide/polyethylene glycol at a volume of 2.0 mL/kg, and mechanical allodynia was determined 60 minutes following compound administration. […]

| SMILES | inhibition in vivo at 10 mg/kg |
| --- | --- |
| O=S(=O)(c1cccc(C(F)(F)F)c1)N1CCN2C[C@H](Oc3ccc(C4CC4)nn3)C[C@H]2C1 [Example 44, (7R,8aS)-7-[(6-cyclopropylpyridazin-3-yl)oxy]-2-{[3-(trifluoromethyl)-phenyl]sulfonyl}octahydropyrrolo[1,2-a]pyrazine] | 40% |
| O=S(=O)(c1cccc(C(F)(F)F)c1)N1CCN2C[C@H](Oc3cnc(C4CC4)cn3)C[C@H]2C1 [Example 21, (7R,8aS)-7-[(5-cyclopropylpyrazin-2-yl)oxy]-2-{[3-(trifluoromethyl)phenyl]-sulfonyl}octahydropyrrolo[1,2-a]pyrazine] | 43% |
| N#Cc1cc(C(F)(F)F)cc(S(=O)(=O)N2CCN3C[C@H](Oc4cnc(C5CC5)cn4)C[C@H]3C2)c1 [Example 64, 3-{[(7R,8aS)-7-[(5-cyclopropylpyrazin-2-yl)oxy]hexahydropyrrolo[1,2-a]-pyrazin-2(1H)-yl]sulfonyl}-5-(trifluoromethyl)benzonitrile] | 37% |
| O=S(=O)(c1cc(F)cc(C(F)(F)F)c1)N1CCN2C[C@H](Oc3cnc(C4CC4)cn3)C[C@H]2C1 [Example 51, (7R,8aS)-7-[(5-cyclopropylpyrazin-2-yl)oxy]-2-{[3-fluoro-5-(trifluoromethyl)phenyl]sulfonyl}octahydropyrrolo[1,2-a]pyrazine] | 32% |
| O=S(=O)(c1ccc(C(F)(F)F)cn1)N1CCN2C[C@H](Oc3cnc(C4CC4)cn3)C[C@H]2C1 [Example 67, (7R,8aS)-7-[(5-cyclopropylpyrazin-2-yl)oxy]-2-{[5-(trifluoromethyl)pyridin-2-yl]sulfonyl}octahydropyrrolo[1,2-a]pyrazine] | 5% |
| O=S(=O)(c1ccc(C(F)(F)F)cc1)N1CCN2C[C@@H](Oc3cnc(C4CC4)cn3)C[C@H]2C1 [Example 50, (7S,8aS)-7-[(5-cyclopropylpyrazin-2-yl)oxy]-2-{[4-(trifluoromethyl)phenyl]-sulfonyl}octahydropyrrolo[1,2-a]pyrazine] | 25% |
| O=S(=O)(c1cccc(C(F)(F)F)c1)N1CCN2C[C@@H](Oc3cnc(C4CC4)cn3)C[C@H]2C1 [Example 49, (7S,8aS)-7-[(5-cyclopropylpyrazin-2-yl)oxy]-2-{[3-(trifluoromethyl)-phenyl]sulfonyl}octahydropyrrolo[1,2-a]pyrazine] | 19% |
| O=S(=O)(c1ccc(C(F)(F)F)cc1)N1CCN2C[C@@H](Oc3cnc(C4CC4)cn3)C[C@@H]2C1 [Example 54, (7S,8aR)-7-[(5-cyclopropylpyrazin-2-yl)oxy]-2-{[4-(trifluoromethyl)phenyl]-sulfonyl}octahydropyrrolo[1,2-a]pyrazine] | 34% |
| O=S(=O)(c1ccc(F)cc1F)N1CCN2C[C@H](Oc3cnc(C4CC4)cn3)C[C@H]2C1 [Example 62, (7R,8aS)-7-[(5-cyclopropylpyrazin-2-yl)oxy]-2-[(2,4-difluorophenyl)-sulfonyl]octahydropyrrolo[1,2-a]pyrazine] | 29% |
| N#Cc1ccc(O[C@@H]2C[C@H]3CN(S(=O)(=O)c4cccc(C(F)(F)F)c4)CCN3C2)cn1 [Example 86, 5-{[(7R,8aS)-2-{[3-(trifluoromethyl)phenyl]sulfonyl}octahydropyrrolo[1,2-a]pyrazin-7-yl]oxy}pyridine-2-carbonitrile] | 0% |
| O=S(=O)(c1ccc(F)c(C(F)(F)F)c1)N1CCN2C[C@H](Oc3cnc(C4CC4)cn3)C[C@H]2C1 [Example 52, (7R,8aS)-7-[(5-cyclopropylpyrazin-2-yl)oxy]-2-{[4-fluoro-3-(trifluoromethyl)phenyl]sulfonyl}octahydropyrrolo[1,2-a]pyrazine] | 38% |
| O=S(=O)(c1ccc(C(F)(F)F)cc1)N1CCN2C[C@H](Oc3cnc(C4CC4)cn3)C[C@H]2C1 [Example 25, (7R,8aS)-7-[(5-cyclopropylpyrazin-2-yl)oxy]-2-{[4-(trifluoromethyl)-phenyl]sulfonyl}octahydropyrrolo[1,2-a]pyrazine] | 42% |
